How the values were obtained:
Assay in all cases: Spectrophotometric assay of hydrolytic activity (kinetic parameters)
Format in all cases: biochemical
[1] = target: hydrolase Seq ID No: 1 (metagenomic, wild-type hydrolase) (uncultured bacterium, UniProt A0ACD6BAS6); settings: potassium phosphate buffer, pH 7.5, 22 °C
Protocol: (§1) For the spectrophotometric assay, the reaction was started by adding an appropriate amount of protein to potassium phosphate buffer, pH 7.5 supplemented with 0.3, 0.15, 0.1, 0.075, 0.05, 0.0375, 0.025, 0.0125 mM N^4-benzoyl-2'-deoxycytidine, or 1, 0.8, 0.5, 0.4, 0.25, 0.2, 0.1, 0.05 mM 2'-deoxycytidine. Then, decreases in absorbance at either 310 for N^4-benzoyl-2'-deoxycytidine or 290 nm for 2'-deoxycytidine were recorded at 22 °C. Kinetic parameters (Table x) were calculated using Imfit-py 1.0.2 software fitting the experimental data to a simple Michaelis-Menten kinetics scheme. Table 5. Kinetic parameters of hydrolases. Substrate: BzdC - N4-benzoyl-2'-deoxycytidine; dC-2'-deoxycytidine.

[2] = system: hydrolase Seq ID No: 3 (metagenomic hydrolase); settings: potassium phosphate buffer, pH 7.5, 22 °C
Protocol: as §1

[3] = target: hydrolase variant Seq ID No: 10 (site-directed mutant) (uncultured bacterium, UniProt A0ACD6BAS6, DEL127-130, form not given); settings: potassium phosphate buffer, pH 7.5, 22 °C, 310 nm
Chain of hydrolase variant Seq ID No: 10 (site-directed mutant) (A0ACD6BAS6 entry or part of it DEL127-130): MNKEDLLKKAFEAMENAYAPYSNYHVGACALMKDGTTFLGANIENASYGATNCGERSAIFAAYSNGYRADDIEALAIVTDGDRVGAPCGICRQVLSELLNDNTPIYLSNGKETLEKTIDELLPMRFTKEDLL
Excerpt: (§2) Mutations in the hydrolase's genes were introduced using methodology based on "Phusion™ Site-Directed Mutagenesis Kit" (Thermo Fisher Scientific). For specific mutagenesis, primer pairs meant to amplify the whole plasmid with the target protein gene, where one primer has miss-matched base pairs in the middle, were created (Fw/Rv): […]/[…] (SEQ ID NO:10); [formula] [formula] […]/[…] (SEQ ID NO:13); [formula] [formula] […]/[…] and […]/[…] (SEQ ID NO: 16, SEQ ID NO: 17, SEQ ID NO: 18); [formula] […]/[…] (SEQ ID NO: 21); [formula] […]/[…] (SEQ ID NO: 23); […]/[…] (SEQ ID NO: 24).
as §1

[4] = target: hydrolase variant Seq ID No: 11 (site-directed mutant) (uncultured bacterium, UniProt A0ACD6BAS6); settings: potassium phosphate buffer, pH 7.5, 22 °C, 310 nm
Chain of hydrolase variant Seq ID No: 11 (site-directed mutant) (A0ACD6BAS6 entry or part of it, change not shown): as the sequence (A0ACD6BAS6 entry or part of it DEL127-130) above
Excerpt: as §2, §1

[5] = target: hydrolase variant Seq ID No: 12 (site-directed mutant) (uncultured bacterium, UniProt A0ACD6BAS6); settings: potassium phosphate buffer, pH 7.5, 22 °C; 310 nm; unit not given
Chain of hydrolase variant Seq ID No: 12 (site-directed mutant) (A0ACD6BAS6 entry or part of it, change not shown): as the sequence (A0ACD6BAS6 entry or part of it DEL127-130) above
Excerpt: as §2, §1

[6] = target: hydrolase variant Seq ID No: 15 (site-directed mutant) (uncultured bacterium, UniProt A0ACD6BAS6); settings: potassium phosphate buffer, pH 7.5, 22 °C, 310 nm (BzdC) or 290 nm (dC)
Chain of hydrolase variant Seq ID No: 15 (site-directed mutant) (A0ACD6BAS6 entry or part of it, change not shown): as the sequence (A0ACD6BAS6 entry or part of it DEL127-130) above
Excerpt: as §2, §1

[7] = target: hydrolase variant Seq ID No:13 (site-directed mutant) (uncultured bacterium, UniProt A0ACD6BAS6, form not given/G85I); settings: potassium phosphate buffer, pH 7.5, 22 °C; 310 nm (BzdC) or 290 nm (dC)
Chain of hydrolase variant Seq ID No:13 (site-directed mutant) (A0ACD6BAS6 entry or part of it G85I, form open): as the sequence (A0ACD6BAS6 entry or part of it DEL127-130) above
Excerpt: as §2, §1

[8] = 310 nm (BzdC) or 290 nm (dC), unit not given
[9] = absorbance decrease at 310 nm (BzdC) or 290 nm (dC), Michaelis-Menten fit

Chain of hydrolase Seq ID No: 1 (metagenomic, wild-type hydrolase) (A0ACD6BAS6 entry or part of it): as the sequence (A0ACD6BAS6 entry or part of it DEL127-130) above

In the case of `O=C(Nc1ccn([C@H]2C[C@H](O)[C@@H](CO)O2)c(=O)n1)c1ccccc1` [BzdC, N4-benzoyl-2'-deoxycytidine], the kcat ([1]; 310 nm (BzdC) or 290 nm (dC)) is reported as “(5.04 ± 0.4) ×10^-1 s^-1”, the Vmax [1, 8] is reported as “(1.00 ± 0.08) × 10^-4” and the Km [1, 9] is reported as 115 µM. The kcat ([2]; 310 nm (BzdC) or 290 nm (dC)) was “(3.81 +/- 0.24) × 10 ^-1 s^-1”, the Vmax [2, 8] was “(6.55 ± 0.41) × 10^-5” and the Km [2, 9] was 46.5 µM. The kcat [3] was “(5.41 ± 0.23) × 10^-2 s^-1”, the Vmax ([3]; unit not given) was “(5.49 ± 0.23) × 10^-5” and the kcat [4] was “(3.88 ± 0.80) × 10^-2 s^-1”. The Vmax ([4]; unit not given) was “(4.56 ± 0.093) × 10^-5”, the Vmax [5] was “(1.19 ± 0.15) × 10^-4” and the kcat [6] was “(1.22 ± 0.09) × 10^-2 s^-1”. For the same compound, the Vmax ([6]; unit not given) was “(3.17 ± 0.25) × 10^-5” and the kcat [7] was “(2.36 ± 0.01) × 10 ^-1 s^-1”.
